Tests used:
[1] = molecular target: T1, human ABCG5-ABCG8 heterodimer (G5G8) (Homo sapiens, UniProt Q9H221+Q9H222); assay: […]phosphate release ATPase assay; type: biochemical; details: 2.5 mM gamma-[32P]ATP (labelled compound), 2.5 mM MgCl2, liver polar lipids, 1% sodium cholate, pH 7.5, 37 °C
T1 construct: heterodimer; HEK-293S GnTI- or Pichia pastoris
T1 sequence (Q9H222 1-651): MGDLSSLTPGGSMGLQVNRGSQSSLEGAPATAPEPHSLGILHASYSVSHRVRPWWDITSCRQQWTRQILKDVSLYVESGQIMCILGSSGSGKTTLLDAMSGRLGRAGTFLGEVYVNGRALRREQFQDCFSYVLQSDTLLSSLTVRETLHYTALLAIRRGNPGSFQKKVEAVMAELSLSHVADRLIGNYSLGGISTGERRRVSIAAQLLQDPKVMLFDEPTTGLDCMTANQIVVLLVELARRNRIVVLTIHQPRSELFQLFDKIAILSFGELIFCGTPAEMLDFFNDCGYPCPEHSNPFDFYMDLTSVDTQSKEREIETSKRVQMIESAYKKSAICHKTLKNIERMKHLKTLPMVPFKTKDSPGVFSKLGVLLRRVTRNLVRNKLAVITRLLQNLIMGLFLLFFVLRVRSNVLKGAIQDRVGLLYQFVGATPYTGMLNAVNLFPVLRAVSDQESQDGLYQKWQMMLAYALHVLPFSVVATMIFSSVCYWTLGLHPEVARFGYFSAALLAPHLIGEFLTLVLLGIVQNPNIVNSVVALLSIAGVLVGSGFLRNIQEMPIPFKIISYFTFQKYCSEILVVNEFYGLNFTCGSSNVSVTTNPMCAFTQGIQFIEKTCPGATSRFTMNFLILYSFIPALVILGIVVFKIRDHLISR
T1 sequence (Q9H221 1-673): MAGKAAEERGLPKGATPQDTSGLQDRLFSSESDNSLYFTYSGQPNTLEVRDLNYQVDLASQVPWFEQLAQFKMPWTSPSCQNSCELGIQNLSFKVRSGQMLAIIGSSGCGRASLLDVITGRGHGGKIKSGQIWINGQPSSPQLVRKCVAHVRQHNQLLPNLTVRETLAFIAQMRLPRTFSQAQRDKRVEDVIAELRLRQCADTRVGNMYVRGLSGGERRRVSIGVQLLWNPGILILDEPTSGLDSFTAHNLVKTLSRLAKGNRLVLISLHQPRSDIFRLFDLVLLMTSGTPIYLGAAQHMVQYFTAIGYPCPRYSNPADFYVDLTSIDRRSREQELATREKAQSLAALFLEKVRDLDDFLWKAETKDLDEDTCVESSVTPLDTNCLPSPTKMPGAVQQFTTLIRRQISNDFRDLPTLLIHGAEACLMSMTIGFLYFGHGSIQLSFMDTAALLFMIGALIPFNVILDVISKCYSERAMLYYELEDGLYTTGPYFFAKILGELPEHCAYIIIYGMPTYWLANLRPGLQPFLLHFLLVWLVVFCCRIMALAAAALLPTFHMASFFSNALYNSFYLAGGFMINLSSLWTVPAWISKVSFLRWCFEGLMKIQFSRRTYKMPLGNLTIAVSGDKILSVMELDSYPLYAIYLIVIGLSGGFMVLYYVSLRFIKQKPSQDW

[2] = molecular target: T2, human ABCG1 (G1) (Homo sapiens, UniProt P45844); assay: NADH-coupled ATPase stimulation; type: biochemical; details: 0.25 mM cholesterol, 0.5-20 mM ATP, 2 mM MgCl2, pH 7.5, 37 °C
T2 construct: full-length cDNA, N-terminal Flag tag; homodimer; WT from Sf9, E242Q from HEK-293S GnTI-; LMNG then digitonin

Row | Structure (SMILES) | [32P]phosphate release ATPase assay [1] | ATPase stimulation [2]
1 | Nc1ncnc2c1ncn2[C@@H]1O[C@H](COP(=O)(O)OP(=O)(O)OP(=O)(O)O)[C@@H](O)[C@H]1O [ATP] | The ATPase activity of purified G5G8 was determined as described | –
2 | CC(C)CCC[C@@H](C)[C@H]1CC[C@H]2[C@@H]3CC=C4C[C@@H](O)CC[C@]4(C)[C@H]3CC[C@]12C [cholesterol] | – | ATPase activity was stimulated by cholesterol but not its diastereomer, epi-cholesterol.

Source: paper PMC8403869 (Proceedings of the National Academy of Sciences of the …, 2021)
